From patent US20230398087A1, “APPLICATION OF BZP IN TREATMENT OF ISCHEMIC CARDIOVASCULAR AND CEREBRAL VASCULAR DISEASES” (priority 2020, published 2023)
“And” between values parts separate entries of the source, which are not always exact repeats. Equal entries are not always repeated. “Also recorded” adds a separate entry of the source.

Columns and labels:
MCAO model rats = assay: Focal cerebral ischemia-reperfusion injury in rats (MCAO model); assay type: in vivo
Protocol: BZP has a protective effect on cerebral ischemia-reperfusion injury and is effective when administered within 4 hours after ischemia, especially within 2 hours after ischemia.
In the follow-up test, the drug was administered at 2 h of ischemia.
BZP can improve motor dysfunction, reduce the volume of cerebral infarction, and reduce cerebral edema. The optimal treatment time window is within 4 hours after ischemia, especially within 2 hours after ischemia.

[1] = system: TNF-α, IL-6, IL-1β, NF-κB, COX-2, ICAM-1; assay: Inflammatory response induced by focal cerebral ischemia-reperfusion injury, immunohistochemical staining; assay type: in vivo, rats
From the text: 2.2 Effects of BZP on Inflammatory Response Induced by Focal Cerebral Ischemia-Reperfusion Injury in Rats:
The results of TNF-α, IL-6, IL-1β, NF-κB, Cox-2, ICAM-1 immunohistochemical staining
BZP can inhibit the cellular inflammatory response induced by cerebral ischemia-reperfusion injury, manifested as inhibiting the expression of TNF-α-IL-6-IL-1β-NF-κB-COX-2-ICAM-1 loop.

platelet aggregation = assay: Rat in vivo platelet aggregation
[2] = system: acute global cerebral ischemia in rats; assay: Acute global cerebral ischemia in rats, volume of cerebral infarction (nuclear magnetic resonance); assay type: in vivo
From the text: 2.7 The Protective Effect of BZP on Acute Global Cerebral Ischemia in Rats: […]

salt-sensitive rats = assay: Salt-sensitive rats; assay type: in vivo
respiratory system = assay: Safety pharmacology, respiratory system; assay type: in vivo, rats; settings: single intravenous injection 25-100 mg/kg
Protocol: In terms of the respiratory system, a single intravenous injection of BZP 25-100 mg/kg had no effect on rats.

[3] = Pharmacokinetics after intravenous injection in rats; assay type: in vivo
[4] = Pharmacokinetics after intravenous injection in dogs; assay type: in vivo
in vivo = settings: for recovery of toxic reactions in the nervous system and respiratory system: acute toxicity test; for MTD: in vivo, single intravenous injection
Protocol: In the acute toxicity test, a single intravenous injection of BZP was given to rats and dogs, and the MTDs were 200 mg/kg and 300 mg/kg.

[5] = Long-term toxicity test, 13 consecutive weeks, dogs; assay type: in vivo
Protocol: These gradually returned to normal within 1 hour. […] The nervous system and respiratory system reactions in the long-term toxicity test were transient reactions, and the slight anemia and damage to the liver also recovered within the observation period.

[6] = Phase I safety and tolerability in healthy subjects (BZP1601 single dose, BZP1702 multiple doses); assay type: in vivo, human
From the text: Analysis population: same as BZP1601 trial. All 36 subjects enrolled were included in the safety analysis data set, 30 subjects in the BZP group and 6 subjects in the placebo group.
The AE related to the study drug occurred from a few minutes to the 9th day after administration, and the symptoms turned to disappear without any clinical intervention.

[7] = BZP1601 Phase I single dose pharmacokinetics in healthy subjects
Protocol: Analysis population: Any subjects who have received BZP and undergone biological sample collections and can undergo pharmacokinetic analysis will be included in the pharmacokinetic analysis (excluding the 12.5 mg of pre-study group). The study analysis included 6 BPZ groups (respectively 25 mg, 50 mg, 100 mg, 200 mg, 300 mg, and 400 mg) and the placebo group, and the number of subjects enrolled in each group was 8, 8, 8, 8, 8, 8, 12 subjects, a total of 60 subjects. All 60 subjects enrolled in the formal study were included in the pharmacokinetic analysis set.
(§1) The blood samples were collected at 0 minutes, 20 minutes, 40 minutes, minutes (end of infusion), 1.25 hours, 1.5 hours, 2 hours, 2.5 hours, 3 hours, 4 hours, 6 hours, 8 hours, 12 hours, 16 hours, 24 hours, 36 hours, and 48 hours after administration in BZP1601 trial, while in the BZP1702 trial, on the first day of administration, the blood samples were collected only by 24 hours after administration.

[8] = BZP1702 Phase I multiple doses pharmacokinetics in healthy subjects; settings: for half-life: both, human, plasma
Protocol: Analysis population: same as BZP1601 trial. The study contained 4 BZP groups (50 mg, 100 mg, 200 mg respectively) and a placebo group. Each group enrolled 10, 10, 10 and 6 subjects, respectively, a total of 36 subjects. 1 subject in the 50 mg group took a drug two days before the administration, and the paracetamol, caffeine, artificial cow-bezoar and chlorphenamine maleate may affect the metabolism of the drug, and the subject dropped out of the group after collecting a 24-hour blood sample on the second day of administration, so the pharmacokinetic parameters could not be fully calculated, and thus this subject was not included in the pharmacokinetic analysis data set, and the other 29 subjects who were given BZP were all included in the pharmacokinetic analysis data set.
as §1

[9] = 12 and 24 mg/kg of BZP (P<0.01)
[10] = BZP 3, 12 and 24 mg/kg, compared with the model group
[11] = BZP 3, 12 and 24 mg/kg, dose-dependent
[12] = 12 mg/kg of BZP vs 9.6 mg/kg NBP-K and 10.5 mg/kg Br-NBP
[13] = low, middle and high dose, compared with the model group
[14] = 7 consecutive days, 6.0 mg/kg, rats
[15] = single intravenous infusion, 25-400 mg

CCCCC(O)c1ccc(Br)cc1C(=O)[O-].[Na+] (stereo not drawn) [BZP, sodium 5-bromo-2-(α-hydroxypentyl)benzoate]
volume of cortical infarction (MCAO model rats; 0.75 mg/kg (P<0.01)): significantly reduce the volume of cortex
effect on volume of cerebral infarction compared with Br-NBP group (MCAO model rats; 3 mg/kg of BZP (P<0.01)): better than that of Br-NBP group
muscle strength and balance beam behavior (MCAO model rats; 12 mg/kg): significantly restore
proportion of necrotic neurons and apoptosis rate (MCAO model rats; 12 mg/kg): reduce the proportion of necrotic neurons and apoptosis rate
effect of administration at 0.5 h and 2 h compared with 4 h after ischemia (MCAO model rats; 12 mg/kg (P<0.01)): better than that of 4 h
volume of cerebral infarction, treatment time window (MCAO model rats; 12 mg/kg at 0.5 h, 2 h or 4 h after ischemia, compared with the model group): significantly reduce
improved effects compared with NBPK group (MCAO model rats; 12 mg/kg, muscle strength, balance beam, necrotic neurons, apoptosis rate): significantly better than those of NBPK group
volumes of cerebral infarction (MCAO model rats; 0.75, 3, 12 and 24 mg/kg, compared with the model group (P<0.01)): significantly reduced
neurobehavioral scores (MCAO model rats; 3, 12 and 24 mg/kg, at 2.5 h and 6 h, compared with the model group (P<0.05, P<0.01)): significantly lower
volumes of brain edema (MCAO model rats; 3, 12 and 24 mg/kg, compared with the model group (P<0.01)): significantly reduced
volumes of striatal and cortical infarction (MCAO model rats; 3 and 12 mg/kg (P<0.01)): significantly reduced the volumes of striatal and cortical infarction
effect on volume of cerebral infarction compared with NBP-K and Br-NBP groups (MCAO model rats; [9]): better than those of NBP-K and Br-NBP groups
effect on brain edema compared with NBP-K group and Br-NBP group (MCAO model rats; 24 and 12 mg/kg of BZP (P<0.01)): better than those of NBP-K group and Br-NBP group
brain swelling (MCAO model rats; [10]): significantly reduce
volume of cerebral infarction (MCAO model rats; [10]): significantly reduce
neurobehavior of MCAO model rats (MCAO model rats; [11]): improve the neurobehavior
treatment time window: time of administration after ischemia at which effective (MCAO model rats; especially within 2 hours after ischemia): ≤ 4 h
effective dose to protect against ischemia-reperfusion injury in rats (MCAO model rats; rat, in vivo): 12 mg/kg
number of positive cells, comparison with NBP-K and Br-NBP groups [1, 12]: better than 9.6 mg/kg of NBP-K group and 10.5 mg/kg of Br-NBP group
optical density value, comparison with NBP-K and Br-NBP groups [1, 12]: better than 9.6 mg/kg of NBP-K group and 10.5 mg/kg of Br-NBP group
expression of TNF-α, IL-6, IL-1β, NF-κB, COX-2, ICAM-1, immunohistochemical staining optical density value [1, 13]: significantly reduced
expressions of TNF-α, IL-6, IL-1β, NF-κB, COX-2, ICAM-1, number of immunohistochemical positive cells [1, 13]: significantly reduced
platelet aggregation inhibition rate, ADP (platelet aggregation; first (low) dose group): 23.89%
platelet aggregation inhibition rate, arachidonic acid (platelet aggregation; first (low) dose group): 42.08%
platelet aggregation inhibition rate, thrombin (platelet aggregation; first (low) dose group): 23.87%
platelet aggregation inhibition rate, ADP (platelet aggregation; second (medium) dose group): 34.42%
platelet aggregation inhibition rate, arachidonic acid (platelet aggregation; second (medium) dose group): 60.32%
platelet aggregation inhibition rate, thrombin (platelet aggregation; second (medium) dose group): 37.75%
platelet aggregation inhibition rate, ADP (platelet aggregation; third (high) dose group): 44.14%
platelet aggregation inhibition rate, arachidonic acid (platelet aggregation; third (high) dose group): 72.20%
platelet aggregation inhibition rate, thrombin (platelet aggregation; third (high) dose group): 55.47%
reduction of volume of cerebral infarction compared with Br-NBP group and NBP-K group [2, 9]: better than those in Br-NBP group and NBP-K group
volume of cerebral infarction ([2]; BZP 0.75, 3, 12 and 24 mg/kg, Br-NBP 10.5 mg/kg, NBP-K 9.6 mg/kg, vs model group): significantly reduce
blood pressure of salt-sensitive rats (salt-sensitive rats; 12 mg/kg, 21 days after administration): significantly reduce the blood pressure
neurobehavior of salt-sensitive rats (salt-sensitive rats; [11]): improve the neurobehavior
effect on the respiratory system (respiratory system): no effect
AUC0-t after the last administration compared with the first [3, 14]: significantly higher than that of the first time
Cmax, single dose compared with multiple doses [3, 14]: no difference
accumulation in the body ([3]; intravenous, 7 consecutive days, 6.0 mg/kg, rats): did not accumulate
AUC0-t, female compared with male rats ([3]; single intravenous injection): significantly higher than that in male rats
Cmax and AUC0-t versus dose ([3]; single intravenous injection of BZP 0.75-12.0 mg/kg, rats): basically conformed to linear kinetics
Cmax and AUC0-t, first compared with last administration ([4]; 7 consecutive days, 2.0 mg/kg, dogs): no statistically significant differences
accumulation in the body ([4]; intravenous, 7 consecutive days, 2.0 mg/kg, dogs): did not accumulate
difference between male and female dogs ([4]; single intravenous injection): no significant difference
Cmax and AUC0-t versus dose ([4]; single intravenous injection of BZP 1.0-4.0 mg/kg, dogs): basically conformed to linear kinetics
recovery of toxic reactions in the nervous system and respiratory system (in vivo; dogs): recovered within 15 minutes to 4 hours
recovery of toxic reactions in the nervous system and respiratory system (in vivo; rats): recovered within 15 minutes to 4 hours
MTD (in vivo; dog, dogs): 300 mg/kg
MTD (in vivo; rat, rats): 200 mg/kg
clinical signs during and after administration ([5]; 50 mg/kg, some dogs): tremors in the head and limbs, loose stools, vomiting, and salivation
clinical signs during each administration ([5]; 150 mg/kg intravenous once a day, 13 weeks, dogs): vomited white foam-like substances, salivation, head and whole body tremors, spasms/convulsions
anemia and liver findings ([5]; 150 mg/kg, dogs): mild anemia and liver damage
NOAEL at 13 weeks ([5]; dog, in vivo, long-term toxicity test, dogs, read-out: NOAEL dose): 50 mg/kg
recovery of symptoms ([5]; dogs, after drug withdrawal): all recovered after 28 days of drug withdrawal
incidence of AE with dose increase ([6]; both Phase I trials): does not increase with the dose increase; also recorded: did not increase with dose increase
overall safety and tolerability in healthy subjects ([6]; both Phase I trials): safe and well tolerated
proportion of AE, BZP groups compared with the placebo group ([6]; both Phase I trials): no statistical difference
death, SAE, AE leading to drop out, other important AE ([6]; both clinical trials): no death, SAE, AE leading to drop out, or other important AE
dose-limiting toxicity (DLT) ([6]; both clinical trials): No dose-limiting toxicity (DLT) occurred
AE of more than mild severity ([6]; multiple dose trial, 100 mg group, AE of others mild): one case of moderate hypotension
AE judged by the investigator to be related to study drug, multiple doses ([6]; multiple doses, dose group per AE): administration site pain; also recorded: hypotension; also recorded: hypokalemia; also recorded: decreased diastolic blood pressure
safety and tolerance ([6]; multiple intravenous infusions, 50 to 200 mg): good safety and tolerance
AE judged by the investigator to be related to study drug, single dose ([6]; single dose, dose group per AE): coagulopathy; also recorded: mild bradycardia; also recorded: decreased white blood cell counts; also recorded: decreased neutrophil cell count/percentage; also recorded: first-degree atrioventricular block; also recorded: proteinuria
safety and tolerance [6, 15]: good safety and tolerance
debrominated metabolites ([7]; 200 mg group): no debrominated metabolites were found
metabolites other than BNBP ([7]; BZP1601): did not find other meaningful metabolites except BNBP
Tmax / time of peak blood drug level ([7]; BZP1601, median Tmax similar in each dose group): basically reached the peak blood drug level after the end of administration
half-life ([7]; both, human, plasma, iv): ~8 h
difference in AUC0-t and Cmax between subjects of different genders ([7]; single dose 25-400 mg): not significantly different; also recorded: There was no significant
cumulative urine excretion rate across dose groups ([7]; single dose, each dose group): basically the same
relationship of AUC0-t and Cmax in plasma with the dose [7, 15]: linearly related to the dose
accumulation after multiple intravenous infusions ([8]; 7 days): no obvious drug accumulation; also recorded: no significant drug accumulation; also recorded: There was no significant
metabolites other than BNBP ([8]; BZP1702): No significant metabolites other than BNBP were found
accumulation ratio ([8]; after 7 days of continuous administration): 1.10-1.18
half-life ([8]; intravenous): 5.34 to 5.57 h
half-life ([8]; iv): 11.1 to 13.3 h
difference in AUC0-t and Cmax between subjects of different genders ([8]; multiple doses): not significantly different and 7 days. There was no
mean ratio range between genders, AUC0-t ([8]; multiple doses): 0.797-1.01
mean ratio range between genders, Cmax ([8]; multiple doses): 0.799-1.01
day on which blood drug level reached steady state ([8]; multiple intravenous infusions of BZP, 50-200 mg): steady state on the 5th day; also recorded: steady state on the fifth
relationship of AUC0-t and Cmax in plasma with the dose ([8]; multiple intravenous infusions, 50-200 mg, first and steady-state administration): linearly related to the dose; also recorded: linear relationship with the dose
